Assay results as given in patent US20250025493A1, “GLUCOHEXAOSE AND PREPARATION METHOD THEREFOR AND APPLICATION THEREOF, AND HAIR REGENERATION PREPARATION” (UNIVERSITY OF MACAU, priority 2021, published 2025).

What was measured:
[1] = system: hair follicles in back unhairing area, androgenetic alopecia (AGA) mouse model; assay: Animal experiment, subcutaneous injection, mouse model of androgenetic alopecia (AGA); type: in vivo, C57BL/6J mice; conditions: subcutaneous injection on D-0, D-7, D-14, FIG. 4
Description: (§1) The method is as follows: healthy male 7-week-old C57BL/6J mice were subjected to back unhairing treatment, wherein the hair on the back area was completely removed using an unhairing cream (Veet); starting from D-0, testosterone was topically applied to the back unhairing area of the mice every day to simulate androgenetic alopecia (AGA), and the hair growth of the mice was photographed for recording; the gulcohexaose was subcutaneously injected to the back unhairing area of the mice every seven days (D-0, D-7, D-14), designated as OG6 group; a blank group (no applying) was set up, designated as a control group; and the hair growth on the back of the mice was observed on day 21.

[2] = system: hair follicles in back unhairing area, androgenetic alopecia (AGA) mouse model; assay: Animal experiment, microneedle administration, mouse model of androgenetic alopecia (AGA); type: in vivo, C57BL/6J mice; conditions: microneedle administration on D-0, D-7, D-14, FIG. 5
Description: as §1, with “(AGA) for modeling,” for “(AGA),”, “microneedle administered” for “subcutaneously injected”

[3] = system: hair follicles in back unhairing area, androgenetic alopecia (AGA) mouse model; assay: Animal experiment, direct application, mouse model of androgenetic alopecia (AGA); type: in vivo, C57BL/6J mice; conditions: direct topical application on D-0, D-7, D-14, FIG. 3
Description: The gulcohexaose sample prepared in example 1 was investigated for the biological effect in promoting hair follicle regeneration.
The method is as follows: healthy male 7-week-old C57BL/6J mice were subjected
as §1, with “to” for “The method is as follows: healthy male 7-week-old C57BL/6J mice were subjected to”, “establish a mouse model of” for “simulate”, “directly and topically applied” for “subcutaneously injected”

[4] = system: mouse bone marrow-derived macrophages (mBMDM); assay: Induction and activation experiment on macrophages, eukaryotic mRNA sequencing of released cytokines; type: cell-based, mouse (C57BL/6J); conditions: 50 ug/ml, 24 h co-incubation, vs PBS group, FIG. 1
Method: The gulcohexaose sample prepared in example 1 above was used to perform an induction and activation experiment on mouse bone marrow-derived macrophages (mBMDM, primary cells extracted from C57BL/6J mice by laboratory methods):
Mouse bone marrow-derived monocytes (5×10^6 cells/10 cm petri dish) were seeded in 10 cm petri dishes and cultured using L929 cell culture supernatant obtained after 7 days of culture+RPMI-1640 medium+10% fetal bovine serum+1% penicillin-streptomycin in a 37° C., 5% CO2 incubator. After cell adherence, the cells were co-incubated with 50 ug/ml gulcohexaose for 24 h, designated as OG6 group, while a blank group (an experimental group to which the gulcohexaose was not added and to which an equal volume (10 μl) of PBS buffer (mainly consisted of Na2HPO4, KH2PO4, NaCl and KCl) was added) was set up, designated as PBS group. After 24 h of co-incubation, the total RNA was extracted from the sample using TRIzol (Invitrogen), eukaryotic mRNA sequencing experiment analysis and bioinformatics analysis were performed, and the difference between the expression level of cytokines released by the mouse bone marrow-derived macrophages stimulated by the gulcohexaose and the expression level of cytokines released in the blank group was compared. This experiment was repeated twice.

[5] = system: androgenetic alopecia in mouse models; assay: Treatment of androgenetic alopecia in mouse models, summary over all administration routes; type: in vivo, mice; conditions: direct skin application, subcutaneous injection or microneedle release administration
Description: The glucohexaose used in the present disclosure can be used to treat androgenetic alopecia in mouse models via any one of direct skin application administration, subcutaneous injection administration and microneedle release administration, and the hair formation is observed.

[6] = system: Ccl5 gene in mouse bone marrow-derived macrophages (mBMDM); assay: Verification experiment, real-time fluorescence quantitative PCR of Ccl5 gene expression in macrophages; type: cell-based, mouse (C57BL/6J); conditions: 50 ug/ml, FIG. 2
Description: To verify the experimental results of eukaryotic mRNA sequencing analysis, a real-time fluorescence quantitative PCR experiment was used to determine the expression level of Ccl5 gene in macrophages stimulated by the gulcohexaose. The gulcohexaose prepared in example I was used to perform an induction and activation experiment on mouse bone marrow-derived macrophages (mBMDM, primary cells extracted from C57BL/6J mice by laboratory methods): • mouse bone marrow-derived monocytes (5×10^6 cells/10 cm petri dish) were seeded in 10 cm petri dishes and cultured using L929 cell culture supernatant obtained after 7 days of culture+RPMI-1640 medium+10% fetal bovine serum+1% penicillin-streptomycin in a 37° C., 5% CO2 incubator. […] After co-incubation for different time periods, the total RNA was extracted from the samples respectively, and the expression levels of Ccl5 cytokine in mouse bone marrow-derived macrophages before and after the stimulation by the gulcohexaose were detected by real-time quantitative PCR.

Substance: Man-Man-Man-Man-Glc-Glc [gulcohexaose]
- hair growth on day 21 compared with blank group ([1]; day 21): obviously superior to that on the mice in the blank group
- hair follicle stage in back treatment area compared with blank group ([1]; testosterone-induced AGA mice): have entered a growth period from a resting period and grew hair
- hair growth at treated part compared with blank group ([2]; observed day 21): obviously denser than that on the mice in the blank group
- hair follicle stage in back treatment area compared with blank group ([2]; testosterone-induced AGA mice): the first to enter a growth period from a resting period and are the first to grow hair
- hair growth on day 21 compared with blank group ([3]; day 21): obviously superior to that on the mice in the blank group
- hair follicle stage in back treatment area compared with blank group ([3]; testosterone-induced AGA mice): have entered a growth period from a resting period and grew hair
- expression level of cytokines released by macrophages versus blank group (mRNA sequencing) [4]: can specifically activate macrophages to release a cytokine network mainly comprising CCL5 chemotactic factors
- adverse reactions [5]: without any serious adverse reactions
- growth of hair on the back of mice [5]: can effectively promote the growth of hair on the back of mice
- expression level of Ccl5 cytokine in macrophages (real-time quantitative PCR) ([6]; 1 h, 12 h and 24 h, vs PBS group): rapidly upregulate the expression level of Ccl5 cytokine
- expression level of Ccl5 cytokine in macrophages after 24 hours of stimulation ([6]; 24 h): high expression level of Ccl5 cytokine in macrophages maintained
